For one assay, the target named is T1, lysozyme (Gallus gallus, UniProt P00698).
T1 construct: hen egg white lysozyme was purchased from Sigma-Aldrich; purchased Sigma-Aldrich; host or cells: hen egg white
The experiment in a line: DSF thermal stability assay, lysozyme. Also noted: species or system hen.

The next assay concerns the target T2, porcine insulin (Sus scrofa, UniProt P01315).
T2 construct: solutions comprising porcine insulin at a concentration of 129 µM
Put plainly: DSF thermal stability assay, porcine insulin. The note with it: insulin 129 µM, solute 0.1 and 0.25 M (FIG. 11).

Assay [1] deals with T3, staphylococcal nuclease (SNase) (Staphylococcus aureus, UniProt P00644).
T3 construct: Recombinant staphylococcal nuclease A (SNase) was produced and purified from Escherichia coli cells; made in house; host or cells: Escherichia coli
The experiment in a line: DSF thermal stability assay, staphylococcal nuclease. The note with it: solute 0.1, 0.25 and 0.5 M (FIG. 8). On the procedure: (§1) The DSF based stability assays were performed at each protein working pH and the melting temperatures (TM) values determined in the absence (control experiments) and in the presence of solutes, and at different solute concentrations. The denaturation curves for each assay were analysed, and the melting temperatures determined by the calculation of the first derivative, which corresponds to the midpoint temperature of the protein-unfolding transition. In the absence of solutes, malate dehydrogenase (MDH), staphylococcal nuclease (SNase) and lysozyme have melting temperatures (TM) of 50, 52 and 71° C. respectively. The unfolding temperature shifts (ΔTM) were calculated by comparing the TM values obtained in the presence of solutes with the TM values of the control experiments (absence of solutes).
(§2) Mannosylglycerate (MG), glucosylglycerate (GG), glucosylglucosylglycerate (GGG), mannosyl glycolate (MGly) and mannosyl lactate (ML) were obtained by chemical synthesis as described in literature (Costa 1998). New synthetic compounds were obtained by chemical synthesis as described in Example 1. […] Purity and concentration of the compounds was assessed by ^1H NMR spectra obtained at 500 MHz spectrometer in D2O. For quantification purposes, spectra were acquired with a repetition delay of 60 s with formate as concentration standard. […]

The target of assay [2] is T4, malate dehydrogenase (MDH) (Sus scrofa, UniProt P00346).
T4 construct: Mitochondrial malate dehydrogenase from pig heart (MDII) was purchased from Roche; purchased Roche; host or cells: pig heart
T4 sequence (P00346 25-338): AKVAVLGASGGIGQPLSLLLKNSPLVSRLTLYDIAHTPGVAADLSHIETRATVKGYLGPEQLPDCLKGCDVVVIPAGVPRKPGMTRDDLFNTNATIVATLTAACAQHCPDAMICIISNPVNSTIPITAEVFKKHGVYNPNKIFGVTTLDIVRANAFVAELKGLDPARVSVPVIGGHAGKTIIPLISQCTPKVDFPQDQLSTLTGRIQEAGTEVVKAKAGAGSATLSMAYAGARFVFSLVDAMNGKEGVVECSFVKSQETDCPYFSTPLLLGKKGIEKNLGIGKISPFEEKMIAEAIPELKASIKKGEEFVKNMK
Put plainly: DSF thermal stability assay, malate dehydrogenase. Details: species or system pig. The note with it: solute 0.1, 0.25 and 0.5 M (FIG. 9). The method, then:
as §1, §2

Data on 4 compounds can be found in patent US20230357301A1, “HEXOSE DERIVATIVES, PREPARATION AND USES THEREOF” (Faculdade de Ciencias da Universidade de Lisboa, priority 2014, published 2023).

T1 sequence (P00698 19-147): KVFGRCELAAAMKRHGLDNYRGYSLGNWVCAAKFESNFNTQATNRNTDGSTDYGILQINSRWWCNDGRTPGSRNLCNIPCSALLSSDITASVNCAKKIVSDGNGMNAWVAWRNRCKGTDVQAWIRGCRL
T2 sequence (P01315 25-54 limits assumed): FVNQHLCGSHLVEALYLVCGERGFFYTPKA
T2 sequence (P01315 88-108 limits assumed): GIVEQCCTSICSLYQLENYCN
Protocol for lysozyme: The DSF based stability assays were performed at each protein working pH and the melting temperatures (TM) values determined in the absence (control experiments) and in the presence of solutes, and at different solute concentrations. The denaturation curves for each assay were analysed, and the melting temperatures determined by the calculation of the first derivative, which corresponds to the midpoint temperature of the protein-unfolding transition. […] The unfolding temperature shifts (ΔTM) were calculated by comparing the TM values obtained in the presence of solutes with the TM values of the control experiments (absence of solutes).
Mitochondrial malate dehydrogenase from pig heart (MDII) was purchased from Roche, and hen egg white lysozyme was purchased from Sigma-Aldrich. These enzymes were used without further purification.
The protein melting temperature (TM) determination was performed by monitoring protein unfolding with the fluoroprobe SYPRO Orange dye (Molecular Probes), which although completely quenched in aqueous environment, emits fluorescence upon binding to protein hydrophobic patches. Such increase in fluorescence can be measured as a function of temperature using Differential Scanning Fluorimetry. In a typical assay with a total volume of 20 µL, a protein concentration from 0.14 to 0.21 mg/mL, and a dye concentration of 5 fold were used to guarantee the best signal to noise ratio. Protein stock solutions of SNase or MDH were prepared in phosphate buffer (20 mM of sodium phosphate, pH 7.6), and lysozyme was prepared in citrate buffer (40 mM sodium citrate, 110 mM NaCl, pH 6.0). These stock solutions were extensively dialyzed against the same buffer before the assays. […] Solute solutions were prepared in water with the respective concentrations. […] Fluorescence intensities versus temperature are used to calculate the protein melting temperature (TM) by determining the first derivative (d(Rfu)/dT) to extract the exact transition inflection point.

Regarding `CC(=O)[O-].[K+]` [AcOK, potassium acetate], on lysozyme (AcOK alone, concentration dependence (FIG. 6)), the “stabilising effect of AcOK alone on lysozyme” value is reported as “not a good stabiliser, stabilising only at high salt concentrations”. Moreover, the “stabilising effect of AcOK on lysozyme in conjugation with hypersolutes” value at lysozyme (AcOK with hypersolutes (0.5 M) (FIG. 6)) is reported as “able to enhance their stabilisation properties”. On to `O=C([O-])COC1O[C@H](CO)[C@@H](O)[C@H](O)[C@H]1O.[K+]` (stereo partly drawn) [glucosyl glycolate, Potassium 2-(α/β-D-glucopyranosyl) acetate], for which the “increment in melting temperature of porcine insulin” value at porcine insulin is “highest increases in melting temperature”. In the case of “Potassium (2S) -2-0- (α/β-D-galactopyranosyl)-2-hydroxysuccinate [α-galactosyl malate]”, the “dependence of SNase melting temperature on the concentration of solutes” value in assay [1] is “clearly the best stabiliser”. In addition, the “dependence of lysozyme melting temperature on the concentration of solutes” value at lysozyme (solute 0.1, 0.25 and 0.5 M (FIG. 10)) was “clearly the best stabiliser”. With “Potassium (2S)-2-O-(α/β-D-glucopyranosyl)-2-hydroxysuccinate [glucosyl malate]”, the “dependence of MDH melting temperature on the concentration of solutes” value in assay [2] was “the best stabiliser”. Also, the “increment in melting temperature of porcine insulin” value on porcine insulin is given as “highest increases in melting temperature”.
